We go through nine compounds from US6433167B1, “Triazolo-1,4-diazepine compounds and medicinal composition containing the same” (Nikken Chemicals Co., Ltd., priority 1997, dated 2002).

For data set [1], the target named is T1, TxA2 synthesis in human blood platelet microsomes (Homo sapiens, UniProt P24557).
T1 construct: containing human blood platelet microsomes (50 μg protein/ml); from tissue; host or cells: human blood platelet microsomes
T1 sequence (P24557 1-533): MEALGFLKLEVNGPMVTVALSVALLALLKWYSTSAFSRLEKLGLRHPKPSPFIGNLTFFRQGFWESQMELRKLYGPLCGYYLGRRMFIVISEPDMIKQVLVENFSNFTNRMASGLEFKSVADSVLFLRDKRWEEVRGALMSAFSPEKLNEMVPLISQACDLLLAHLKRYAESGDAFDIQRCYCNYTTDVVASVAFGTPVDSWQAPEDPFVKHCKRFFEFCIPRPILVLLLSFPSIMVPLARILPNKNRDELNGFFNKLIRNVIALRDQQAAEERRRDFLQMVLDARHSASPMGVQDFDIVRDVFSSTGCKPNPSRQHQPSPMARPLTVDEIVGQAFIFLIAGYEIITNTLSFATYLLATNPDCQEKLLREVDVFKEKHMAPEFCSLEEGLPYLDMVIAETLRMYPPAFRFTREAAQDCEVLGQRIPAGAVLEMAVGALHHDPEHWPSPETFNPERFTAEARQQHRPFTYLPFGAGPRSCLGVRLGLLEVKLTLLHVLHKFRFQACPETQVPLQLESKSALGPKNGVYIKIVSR
The experiment in a line: TxA2 synthesis inhibiting action test (TxB2 by EIA). Format: biochemical. Conditions: test compound final concentration 10^−7M, human blood platelet microsomes 50 μg protein/ml, prostaglandin H2 substrate. On the procedure:
1 ml of a buffer (20 MM Tris-HCl buffer, 1 mM EDTA, pH 7.5) containing human blood platelet microsomes (50 μg protein/ml) and the test compound (final concentration 10^−7M) was agitated, then incubated at 0° C. for 30 minutes. To this was added prostaglandin H2 (100 ng/2 μl). This was incubated at 23° C. for 3 minutes to cause a reaction. Next, 1M hydrochloric acid was added to make the solution acidic and stop the reaction, then this was neutralized by 1M Tris-Base and centrifuged at 3000 rpm for 20 minutes. The amount of the TxB2 in the supernatant was measured by the EIA method (Cayman Co. kit).
The test results are shown in Table II. a Further, as controls, UK-74,505 having a PAF antagonistic action and OKY-046 having a TxA2 synthesis inhibiting action were used.

Data set [2] relates to platelet activating factor (PAF)-induced aggregation of platelet rich plasma (PRP). Put plainly: PAF antagonistic action test (PAF-induced platelet aggregation in platelet rich plasma). Format: cell-based, Japanese white rabbits. Conditions: test compound final concentration 10^−7M; PAF final concentration 17 nM; rabbit PRP, 37° C. As to the method: Japanese white rabbits (2.5 to 3.0 kg, Clean Experimental Animal Center) were used. Nine volumes of blood were taken with respect to one volume of 3.8% sodium citrate from the carotid under anesthesia by pentobarbitol. This was centrifuged at 1000 rpm and room temperature for 10 minutes. The top layer was used as the platelet rich plasma (PRP). The lower layer was further centrifuged at 3000 rpm and room temperature for 10 minutes to obtain the platelet poor plasma (PPP).
5 μl (final concentration 10^−7M) of the test compound was added to 90 μl of PRP. This was incubated at 37° C. for 3 minutes, then a platelet activating factor (PAF, final concentration 17 nM) was added to cause aggregation and the aggregation reaction was measured for 5 minutes using an aggrigometer (MC Medical, PAT-606).

The subject of another data set is rats or mice. The experiment in a line: Acute toxicity test. Format: in vivo. Conditions: administered intravenously, 10 mg/kg.

Structures are written as SMILES.

Regarding `CCOC(=O)CCCCON=C(c1cccnc1)c1ccccc1C(=O)N1CCc2c(sc3c2C(c2ccccc2Cl)=NC(C)c2nnc(C)n2-3)C1` (mixture of isomers) [Compound 1, 6-(2-Chlorophenyl)-3-[2-[((E/Z)-4-ethoxycarbonylbutyloxyimino)(3-pyridyl)methylene]phenylcarbonyl]-8,11-dimethyl-2,3,4,5-tetrahydro-8H-pyrido[4′,3′:4,5]thieno[3,2-f][1,2,4]triazolo[4,3-a][1,4]diazepine], the inhibition at 0.1 µM in data set [1] (read-out: TxA2 synthesis inhibiting action Rate of suppression at 10^−7 M (%)) amounted to 53%. The “PAF antagonistic action Rate of suppression at 10^−7 M (%)” value (“PAF antagonistic action Rate … (%)” for short) in data set [2] is reported as 82.0%.

`CCOC(=O)CCCCON=C(c1ccc(CC(=O)N2CCc3c(sc4c3C(c3ccccc3Cl)=NC(C)c3nnc(C)n3-4)C2)cc1)c1cccnc1` (mixture of isomers) [Compound 4, 6-(2-Chlorophenyl)-3-[4-[((E/Z)-4-ethoxycarbonylbutyloxyimino)(3-pyridyl)methyl]phenylmethylcarbonyl]-8,11-dimethyl-2,3,4,5-tetrahydro-8H-pyrido[4′,3′:4,5]thieno[3,2-f](1,2,4]triazolo[4,3-a][1,4]diazepine]: the “Deaths after intravenous administration” value with rats or mice is reported as “no deaths were observed”. In addition, the “TxA2 synthesis inhibiting action Rate of suppression at 10^−7 M (%)” value (“TxA2 synthesis inhibiting action Rate … (%)” for short) in data set [1] was 79.6%. Besides, the “PAF antagonistic action Rate … (%)” value in data set [2] was 94.6%.

Consider `CCOC(=O)CCCCON=C(c1cccnc1)c1cccc(CCCC(=O)N2CCc3c(sc4c3C(c3ccccc3Cl)=NC(C)c3nnc(C)n3-4)C2)c1` (mixture of isomers) [Compound 5, 6-(2-Chlorophenyl)-3-[3-[3-[((E/Z)-4-ethoxycarbonylbutyloxyimino)(3-pyridyl)methyl]phenyl]propylcarbonyl]-8,11-dimethyl-2,3,4,5-tetrahydro-8H-pyrido[4′,3′:4,5]thieno[3,2-f][1,2,4]triazolo[4,3-a][1,4]diazepine], for which the “TxA2 synthesis inhibiting action Rate … (%)” value in data set [1] came to 40.3%. The “PAF antagonistic action Rate … (%)” value in data set [2] was determined as 95.5%.

Consider `CCOC(=O)CCCCON=C(c1ccc(COCC(=O)N2CCc3c(sc4c3C(c3ccccc3Cl)=NC(C)c3nnc(C)n3-4)C2)cc1)c1cccnc1` (mixture of isomers) [Compound 6, 6-(2-Chlorophenyl)-3-[4-[((E/Z)-4-ethoxycarbonylbutyloxyimino)(3-pyridyl)methyl]phenylmethyloxymethylcarbonyl]-8,11-dimethyl-2,3,4,5-tetrahydro-8H-pyrido[4′,3′:4,5]thieno[3,2-f][1,2,4]triazolo[4,3-a][1,4]diazepine], for which, in the data set with rats or mice, the “Deaths after intravenous administration” value is on record as “no deaths were observed”. In addition, the “TxA2 synthesis inhibiting action Rate … (%)” value in data set [1] is recorded as 75.6%. The “PAF antagonistic action Rate … (%)” value in data set [2] stood at 79.8%.

For the compound `CCOC(=O)CCCCON=C(c1cccnc1)c1cccc(CN2CCc3c(sc4c3C(c3ccccc3Cl)=NC(C)c3nnc(C)n3-4)C2)c1` (mixture of isomers) [Compound 7, 6-(2-Chlorophenyl)-3-[3-[((E/Z)-4-ethoxycarbonylbutyloxyimino)(3-pyridyl)methyl]phenylmethyl]-8,11-dimethyl-2,3,4,5-tetrahydro-8H-pyrido[4′,3′:4,5]thieno[3,2-f][1,2,4]triazolo[4,3-a][1,4]diazepine], the “TxA2 synthesis inhibiting action Rate … (%)” value in data set [1] worked out at 58.2%. Further, in data set [2], the “PAF antagonistic action Rate … (%)” value is listed as 94.0%.

Turning to `Cc1nnc2n1-c1sc3c(c1C(c1ccccc1Cl)=NC2C)CCN(Cc1cccc(C(=NOCCCCC(=O)O)c2cccnc2)c1)C3` (mixture of isomers) [Compound 8, 6-(2-Chlorophenyl)-3-[3-[((E/Z)-4-carboxydibutyloxyimino)(3-pyridyl)methyl]phenylmethyl]-8,11-dimethyl-2,3,4,5-tetrahydro-8H-pyrido[4′,3′:4,5]thieno[3,2-f][1,2,4]triazolo[4,3-a][1,4]diazepine], the “TxA2 synthesis inhibiting action Rate … (%)” value in data set [1] is listed as 81.7%. The “PAF antagonistic action Rate … (%)” value in data set [2] stood at 52.0%.

For `CCOC(=O)CCCCC=C(c1ccc(CN2CCc3c(sc4c3C(c3ccccc3Cl)=NC(C)c3nnc(C)n3-4)C2)cc1)c1cccnc1` (mixture of isomers) [Compound 11, 6-(2-Chlorophenyl)-3-[4-[((E/Z)-5-ethoxycarbonylpentylidene)(3-pyridyl)methyl]phenylmethyl]-8,11-dimethyl-2,3,4,5-tetrahydro-8H-pyrido[4′,3′:4,5]thieno[3,2-f][1,2,4]triazolo[4,3-a][1,4]diazepine], the “TxA2 synthesis inhibiting action Rate … (%)” value in data set [1] is 83.7%. For the same compound, in data set [2], the “PAF antagonistic action Rate … (%)” value is 94.2%.

Take `O=C(O)/C=C/c1ccc(Cn2ccnc2)cc1` [OKY-046, reference compound]: in data set [1], the “TxA2 synthesis inhibiting action Rate … (%)” value stood at 84.5%. In addition, the “PAF antagonistic action Rate … (%)” value in data set [2] is on record as 0%.

Consider `CCOC(=O)C1=C(c2ccc(-n3c(C)nc4cnccc43)cc2)NC(C)=C(C(=O)Nc2ccccn2)C1c1ccccc1Cl` (centres unmarked) [UK-74,505, reference compound], for which the “TxA2 synthesis inhibiting action Rate … (%)” value in data set [1] is recorded as 0%. Moreover, the “PAF antagonistic action Rate … (%)” value in data set [2] was determined as 89.0%.
